{
  "source": "patent US20060063818A1",
  "about": "“Hydantoin derivatives and deren verwendung als tace inhibitoren” (priority 2002, published 2006)",
  "target": "T1, proTNF-α convertase enzyme (TACE) (Homo sapiens, UniProt P78536)",
  "T1 construct": "a partially purified, isolated enzyme assay, the enzyme being obtained from the membranes of TBP-1; endogenous in cells",
  "T1 sequence (P78536 215-824)": "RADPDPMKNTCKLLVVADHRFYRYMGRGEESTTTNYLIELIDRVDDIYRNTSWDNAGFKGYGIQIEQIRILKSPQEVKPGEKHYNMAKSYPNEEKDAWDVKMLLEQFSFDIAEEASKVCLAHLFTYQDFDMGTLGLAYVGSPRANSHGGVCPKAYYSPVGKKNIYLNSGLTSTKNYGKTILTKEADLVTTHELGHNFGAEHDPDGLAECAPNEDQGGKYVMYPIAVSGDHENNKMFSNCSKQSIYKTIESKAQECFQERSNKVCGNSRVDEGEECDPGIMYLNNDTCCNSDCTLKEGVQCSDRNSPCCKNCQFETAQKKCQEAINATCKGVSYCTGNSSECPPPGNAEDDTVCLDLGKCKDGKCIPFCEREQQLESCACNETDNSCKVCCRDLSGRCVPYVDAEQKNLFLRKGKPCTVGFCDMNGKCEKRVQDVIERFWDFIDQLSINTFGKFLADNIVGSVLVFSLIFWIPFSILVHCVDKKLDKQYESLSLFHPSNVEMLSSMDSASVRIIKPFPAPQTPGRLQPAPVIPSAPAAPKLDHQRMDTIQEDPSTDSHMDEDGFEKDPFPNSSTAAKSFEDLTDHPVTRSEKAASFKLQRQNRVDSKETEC",
  "experiment": "Isolated enzyme assay, proTNF-α convertase (TACE), fluorogenic peptide substrate",
  "assay_type": "biochemical",
  "conditions": "partially purified enzyme from membranes of TBP-1; 26° C. for 4 hours; read-out: concentration of compound that gave 50% inhibition of TACE",
  "method": "Recombinant human proMMP13 may be expressed and purified as described by Knauper et al. [V. Knauper et al., (1996) The Biochemical Journal 271:1544-1550 (1996)]. The purified enzyme can be used to monitor inhibitors of activity as follows: purified proMMP13 is activated using lmM amino phenyl mercuric […] (APMA), 20 hours at 21° C.; the activated MMP13 (11.25 ng per assay) is incubated for 4-5 hours at 35° C. in assay buffer (0.1M Tris-HCl, pH 7.5 containing 0.1M NaCl, 20 mM CaCl2, 0.02 mM ZnCl and 0.05% (w/v) Brij 35 using the synthetic substrate 7-methoxycoumarin-4-yl)acetyl.Pro.Leu.Gly.Leu.N-3-(2,4-dinitrophenyl)-L2,3-diaminopropionyl.Ala.Arg.NH2 in the presence or absence of inhibitors. Activity is determined by measuring the fluorescence at λex 328 nm and λem 393 nm. Percent inhibition is calculated as follows: % Inhibition is equal to the […].\nThe ability of the compounds to inhibit proTNF-α convertase enzyme (TACE) may be assessed using a partially purified, isolated enzyme assay, the enzyme being obtained from the membranes of TBP-1 as described by K. M. Mohler et al., (1994) Nature 370:218-220. […] The amount of inhibition is determined as for MMP13 except λex 485 nm and λem 538 nm were used. […]",
  "data": [
    {"smiles": "Cc1cc(COc2ccc(C3(C)CCN(CC4(c5ccccc5)NC(=O)NC4=O)C3=O)cc2)c2ccccc2n1", "note": "(stereo not shown) [compound 6, 5-{3-Methyl-3-[4-(2-methylquinolin-4-ylmethoxy)phenyl]-2oxopyrrolidin-1-ylmethyl}-5-phenylimidazolidine-2,4-dione]", "values": [
      {"measurement": "IC50", "result": 130, "unit": "nM"}
    ]}
  ]
}
